This is an account of results in PubChem BioAssay (NCI).

Assay in all cases: NCI-60 cell line screen, 48 h
Assay [1] relates to HCT-116 colon.
The test system of assay [2] is MCF7 breast.
In assay [3] the test system is A498 renal.
Assay [4] deals with HOP-62 NSCLC.
Assay [5] concerns NCI/ADR-RES ovarian.
In assay [6] the test system is UACC-257 melanoma.
The test system of assay [7] is HT29 colon.
For assay [8], the system named is SNB-19 CNS.
In assay [9] the test system is SK-MEL-2 melanoma.
For assay [10], the system named is SF-268 CNS.

Molecules are shown by their SMILES. “And” between values parts separate entries of the source, which are not always exact repeats. Identical values can stand only once.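 Following 48 hours of exposure in 96-well plates, responses at five concentrations were used to interpolate endpoints linearly. GI50 marks 50% less growth. Definition used: TGI = concentration required for complete inhibition of growth.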

Regarding `CN1CCN(Cc2ccc(NC(=O)c3cncc(C#Cc4cncc5ncccc45)c3)cc2C(F)(F)F)CC1`, the GI50 was 1.26 µM in assay [1]; 3.28 µM in assay [2]; 0.323 µM in assay [3]; 2.53 µM in assay [4]; 5.34 µM in [5]; 2.47 µM in [6]. The GI50 is 1.04 µM in [7], 10.5 µM in [8], 0.542 µM in assay [9] and 3.99 µM in assay [10]. For the same molecule, the TGI in assay [1] stood at 11.5 µM; in assay [2] it was 15.7 µM; in [3], 3.43 µM; in assay [4], 12 µM; in assay [5] it was 18.9 µM; in assay [6] it was 12.4 µM. In addition, the TGI turned out to be 11.9 µM in assay [7], 22.3 µM in assay [8], 2.48 µM in assay [9] and 17.6 µM in [10].
Turning to `CC(=O)c1c(C)n(C)c2c1nnc1ccccc12`, the TGI was more than 100 µM in assay [1]; 86.3 µM in assay [2]; more than 100 µM in assay [3]; more than 100 µM in [4]; more than 100 µM in assay [5]; more than 100 µM in assay [6]. In addition, the TGI in assay [7], in assay [8], in assay [9] and in [10] was more than 100 µM throughout.
On to `O=[N+]([O-])c1ccc2c(N3CCC(CCCC4CCN(c5ncnc6cc([N+](=O)[O-])ccc56)CC4)CC3)ncnc2c1`, for which the GI50 is 0.514 µM in assay [1]; 0.619 µM in assay [2]; 1.44 µM in [3]; more than 32.2 µM in assay [4]; 0.658 µM in [5]; 1.55 µM in [6]. Besides, the GI50 in [7] was 21.7 µM; in assay [8] it was more than 42.3 µM; in assay [9], more than 52.2 µM; in assay [10], more than 53.3 µM. Moreover, the TGI in assay [1] is 97.6 µM; in assay [2], more than 59.3 µM; in [3], more than 100 µM; in assay [4], more than 100 µM; in assay [5], more than 100 µM; in [6], more than 100 µM. The TGI in [7] is more than 86.4 µM; in assay [8], more than 100 µM; in assay [9] it was more than 85.3 µM; in assay [10], more than 100 µM.
For the molecule `COc1ccc(C2=NN(C(=O)c3cc(OC)c(OC)c(OC)c3)C(c3ccc(Cl)cc3)C2)cc1OC` (centres undefined), the GI50 in assay [1] is 2.04 µM; in assay [2], 0.398 µM; in assay [3], 0.608 µM; in assay [4] it was 5.24 µM; in assay [5] it was 1.05 µM; in [6] it was 8.6 µM. Moreover, the GI50 was 1.4 µM in [7], 4.15 µM in assay [8], 3.71 µM in assay [9] and 2.66 µM in [10]. Further, the TGI is 19.7 µM in [1]; 14.7 µM in assay [2]; 8.3 µM in assay [3]; 32 µM in assay [4]; 77.8 µM in assay [6]; more than 100 µM in assay [7]. The TGI in assay [8] was determined as 44 µM; in assay [9] it was 63.6 µM; in assay [10], 23.6 µM.
Turning to `CNC(=O)c1ccc2cc(C3(O)CCn4cncc43)ccc2c1` (centres undefined), the GI50 in assay [1], in [2], in assay [3], in assay [4], in assay [5] and in [6] was more than 100 µM in each case. Besides, the GI50 in assay [7], in [8], in assay [9] and in assay [10] was more than 100 µM each time. Moreover, the TGI in [1], in assay [2], in assay [3], in assay [4], in assay [5] and in assay [6] was more than 100 µM throughout. Besides, the TGI in [7], in assay [8], in assay [9] and in [10] was more than 100 µM each time.
With `O=C(Nc1cccc(Oc2nnc(Cl)c3ccccc23)c1)Nc1ccc(Cl)c(C(F)(F)F)c1`, the GI50 was 1.05 µM in [1]; 0.571 µM in assay [2]; 0.275 µM in assay [3]; 1.98 µM in [4]; 0.926 µM in [5]; 0.952 µM in assay [6]. Also, the GI50 is 0.771 µM in assay [7], 1.26 µM in [8], 0.698 µM in [9] and 0.793 µM in assay [10]. For the same molecule, the TGI was found to be 3.51 µM in assay [1]; 3.03 µM in [2]; 1.7 µM in assay [3]; 5.75 µM in assay [4]; 9.95 µM in [5]; 3.37 µM in assay [6]. Moreover, the TGI in assay [7] came out at 3.14 µM; in assay [8] it was 4.9 µM; in assay [9], 3.24 µM; in assay [10], 5.5 µM.
Consider `CN(C)CCOc1ccc(/C(=C(/CCCl)c2ccccc2)c2ccccc2)cc1`, for which the GI50 is 1.59 µM in assay [1]; 0.565 µM in assay [2]; 0.885 µM in assay [3]; 0.993 µM in assay [4]; 1.6 µM in assay [5]; 0.943 µM in assay [6]. In addition, the GI50 was 0.598 µM in assay [7], 1.85 µM in assay [8], 0.975 µM in [9] and 1.51 µM in assay [10]. The TGI in assay [1] is 5.33 µM and 30.4 µM; in assay [3], 3.12 µM; in [5] it was 4.95 µM and 30.7 µM; in assay [8] it was 22.6 µM and 28.5 µM; in assay [10], 17.4 µM and 33 µM.
`O=C(Nc1ccc(Oc2ccc3nc(NC(=O)c4ccccc4)[nH]c3c2)cc1)Nc1cc(C(F)(F)F)ccc1F`: the GI50 in assay [1] was 1.09 µM; in assay [2], 0.758 µM; in [3] it was 2.57 µM; in assay [4], 0.871 µM; in assay [5], 0.771 µM; in assay [6] it was 1.39 µM. The GI50 is 1.38 µM in assay [7], 5.56 µM in assay [8], 0.832 µM in [9] and 2.03 µM in [10]. Besides, the TGI was more than 18.1 µM in assay [1]; 5.14 µM in assay [2]; more than 25 µM in [3]; 6.65 µM in assay [4]; 3.38 µM in assay [5]; 11.3 µM in assay [6]. Also, the TGI in assay [7] was more than 25 µM; in assay [8], more than 25 µM; in assay [9], 3.63 µM; in [10], 24.4 µM.
